This is an account of results in US9969697B2, “3,4-dihydroquinazoline derivative and combination comprising the same” (UNIVERSITY-INDUSTRY COOPERATION GROUP OF KYUNG HEE …, priority 2014, dated 2018).

The subject of assay [1] is lung cancer cells (A549). Nature of the assay: Cell cycle analysis by PI staining / flow cytometry, with combination index. It is filed as cell-based, human. Also on record: SubG1: unit not given here. The settings on record: A549, 48 hours. On the procedure: To measure the inviability of cancer cells quantitatively, the cell cycle thereof was analyzed through flow cytometry as follows, in accordance with the method given in the document [See Kim, Y. H. et al., Expression of the murine homologue of the cell cycle control protein […] in T lymphocytes.
After adding ribonuclease (2.5 μg/ml) and propidium iodide (50 μg/ml) together with 500 μl of PBS, the cells were left for 30 minutes in the dark at room temperature, followed by analyzing cell cycle within 1 hour using FACScan flow cytometer (Becton Dickinson Co, Heidelberg, Germany).
(§1) Combination index (CI) mathematically expresses the cytotoxicity on cancer cells or growth inhibition of cancer cells through relative comparison after treating drugs alone or in a combination. The CI is the quantitative concept introduced by Paul Talalay and Ting-Chao Chou and was calculated using CalcuSyn software. The effect of combination treatment according to the values of CI was defined as follows.
In general terms: A flow cytometer gives signals particle by particle.

For assay [2], the system named is pancreatic cancer cells (PANC-1). Described as above. It is filed as cell-based, human. The note with it: PANC-1, 48 hours, Table 3.
The target in assay [3] is T1, α1G T-type calcium channel (Homo sapiens, UniProt O43497).
T1 construct: expressed in transfected cells
Kind of assay: T-type calcium channel activity, whole-cell patch-clamp in HEK293 cells. It is filed as cell-based. The note with it: HEK293 cells expressing α1G T-type calcium channel; read-out: T-type calcium channel blocking effect (IC50: μM). As to the method: The culture medium was replaced with a fresh medium every 3 to 4 days, and the cultured cells were subjected to sub-culture every week. […] The cells used for T-type calcium channel activity assay were cultured on a cover slip coated with poly-L-lysine (0.5 mg/mL) whenever sub-cultured, and their calcium channel activity was recorded 2 to 7 days after the cultivation. Current of the T-type calcium channel at a single cell level was measured according to an electrophysiological whole-cell patch-clamp method using EPC-9 amplifier (HEKA, Germany). At this time, a cell exterior solution [NaCl 140 mM, CaCl2 2 mM, and HEPES 10 mM (pH 7.4)] and a cell interior solution [KCl 130 mM, HEPES 10 mM, EGTA 11 mM, and MgATP 5 mM (pH 7.4)] were employed. Inward current caused by the T-type calcium channel activation which occurred when the cells were converted into a whole-cell recording mode by stabbing a microglass electrode having 3-4 MΩ resistance which was filled with the cell interior solution into a single cell and depolarized at −30 mV (50 ms duration period) every 10 s with fixing membrane potential to −100 mV was measured according to a T-type calcium Channel activity protocol activated at low voltage.

The test system of assay [4] is A549 cell line (human lung cancer). Kind of assay: MTT cytotoxicity assay on cancer cells. It is filed as cell-based. The settings on record: 48 hours after treatment. On the procedure:
A549 cell line (human lung cancer) and PANC-1 cell line (human pancreatic cancer) were obtained from Korean Cell Line Bank (KCLB). The cells were cultured in RPMI 1640 medium supplemented with 10% fetal bovine serum (FBS) being heated and inactivated, penicillin (100 units/ml) and streptomycin sulfate (100 units/ml) under the condition of 37° C. and 5% CO2.
In order to confirm the cytotoxicity of drugs, an MTT (3-(4,5-dimethylthiazol-2-yl)-2,5-diphenyltetrazolium bromide) assay was conducted as follows [See Armichael et al., Evaluation of a tetrazolium-based semiautomated colorimetric assay: assessment of chemisensitivity testing. Cancer Research, 47, pp. 944-946, 1987]. The MTT assay is based on the reduction of water-soluble MTT (tetrazolium salt, yellow) which can be absorbed in living cells to its water-insoluble formazan crystals (purple) by activity of oxidoreductase enzymes of mitochondria. That is, when the number of viable cells is more, the formation of formazan crystals increases and the value of absorbance becomes higher.
Each of the cultured cancer cells was inoculated in a 96-well plate (5×10^4 cells/well) and cultured in RPMI medium (100 μl) containing 5% FBS. In 48 hours after the treatment of drugs (200, 100, 50, 25, 12.5, 6.25, 3.125 μM), 20 μl of an MTT solution (5.0 mg/ml) was added to each well, followed by further incubation for 4 hours. The supernatant of the plate was collected, and formazan crystals formed by MTT in the cells were added in 200 μl of DMSO to dissolve the precipitate. The OD value was measured at 540 nm using microplate reader (Molecular Devices).
For orientation: Tetrazolium assays rely on reduction of a dye to a coloured formazan, in cell work by metabolically active cells.

Assay [5] concerns lung cancer cells (A549). Nature of the assay: Annexin V-FITC/PI double staining assay (apoptosis), with combination index. Also on record: unit not given here. It is filed as cell-based, human. As to the method: Cell death include the event that phosphatidylserine translocated to the surface of cell membrane is bound to Annexin V-FITC to express fluorochromes. Cells were treated with drugs, harvested, washed with ice-cold PBS twice, and supplied with 100 μl of Annexin V binding buffer ([…] 4-(2-hydroxyethyl)piperazine-1-ethanesulfonic acid (HEPES)/NaOH, 140 mM NaCl, 2.5 mM CaCl2, pH 7.4). Thereto, 5 μl of FITC-conjugated Annexin V and PI (50 μg/ml) were added. The mixture was left for 30 minutes in the dark at room temperature, followed by analysis within 1 hour using FACScan flow cytometer (Becton Dickinson Co, Heidelberg, Germany).
as §1

T1 sequence (O43497 whole entry): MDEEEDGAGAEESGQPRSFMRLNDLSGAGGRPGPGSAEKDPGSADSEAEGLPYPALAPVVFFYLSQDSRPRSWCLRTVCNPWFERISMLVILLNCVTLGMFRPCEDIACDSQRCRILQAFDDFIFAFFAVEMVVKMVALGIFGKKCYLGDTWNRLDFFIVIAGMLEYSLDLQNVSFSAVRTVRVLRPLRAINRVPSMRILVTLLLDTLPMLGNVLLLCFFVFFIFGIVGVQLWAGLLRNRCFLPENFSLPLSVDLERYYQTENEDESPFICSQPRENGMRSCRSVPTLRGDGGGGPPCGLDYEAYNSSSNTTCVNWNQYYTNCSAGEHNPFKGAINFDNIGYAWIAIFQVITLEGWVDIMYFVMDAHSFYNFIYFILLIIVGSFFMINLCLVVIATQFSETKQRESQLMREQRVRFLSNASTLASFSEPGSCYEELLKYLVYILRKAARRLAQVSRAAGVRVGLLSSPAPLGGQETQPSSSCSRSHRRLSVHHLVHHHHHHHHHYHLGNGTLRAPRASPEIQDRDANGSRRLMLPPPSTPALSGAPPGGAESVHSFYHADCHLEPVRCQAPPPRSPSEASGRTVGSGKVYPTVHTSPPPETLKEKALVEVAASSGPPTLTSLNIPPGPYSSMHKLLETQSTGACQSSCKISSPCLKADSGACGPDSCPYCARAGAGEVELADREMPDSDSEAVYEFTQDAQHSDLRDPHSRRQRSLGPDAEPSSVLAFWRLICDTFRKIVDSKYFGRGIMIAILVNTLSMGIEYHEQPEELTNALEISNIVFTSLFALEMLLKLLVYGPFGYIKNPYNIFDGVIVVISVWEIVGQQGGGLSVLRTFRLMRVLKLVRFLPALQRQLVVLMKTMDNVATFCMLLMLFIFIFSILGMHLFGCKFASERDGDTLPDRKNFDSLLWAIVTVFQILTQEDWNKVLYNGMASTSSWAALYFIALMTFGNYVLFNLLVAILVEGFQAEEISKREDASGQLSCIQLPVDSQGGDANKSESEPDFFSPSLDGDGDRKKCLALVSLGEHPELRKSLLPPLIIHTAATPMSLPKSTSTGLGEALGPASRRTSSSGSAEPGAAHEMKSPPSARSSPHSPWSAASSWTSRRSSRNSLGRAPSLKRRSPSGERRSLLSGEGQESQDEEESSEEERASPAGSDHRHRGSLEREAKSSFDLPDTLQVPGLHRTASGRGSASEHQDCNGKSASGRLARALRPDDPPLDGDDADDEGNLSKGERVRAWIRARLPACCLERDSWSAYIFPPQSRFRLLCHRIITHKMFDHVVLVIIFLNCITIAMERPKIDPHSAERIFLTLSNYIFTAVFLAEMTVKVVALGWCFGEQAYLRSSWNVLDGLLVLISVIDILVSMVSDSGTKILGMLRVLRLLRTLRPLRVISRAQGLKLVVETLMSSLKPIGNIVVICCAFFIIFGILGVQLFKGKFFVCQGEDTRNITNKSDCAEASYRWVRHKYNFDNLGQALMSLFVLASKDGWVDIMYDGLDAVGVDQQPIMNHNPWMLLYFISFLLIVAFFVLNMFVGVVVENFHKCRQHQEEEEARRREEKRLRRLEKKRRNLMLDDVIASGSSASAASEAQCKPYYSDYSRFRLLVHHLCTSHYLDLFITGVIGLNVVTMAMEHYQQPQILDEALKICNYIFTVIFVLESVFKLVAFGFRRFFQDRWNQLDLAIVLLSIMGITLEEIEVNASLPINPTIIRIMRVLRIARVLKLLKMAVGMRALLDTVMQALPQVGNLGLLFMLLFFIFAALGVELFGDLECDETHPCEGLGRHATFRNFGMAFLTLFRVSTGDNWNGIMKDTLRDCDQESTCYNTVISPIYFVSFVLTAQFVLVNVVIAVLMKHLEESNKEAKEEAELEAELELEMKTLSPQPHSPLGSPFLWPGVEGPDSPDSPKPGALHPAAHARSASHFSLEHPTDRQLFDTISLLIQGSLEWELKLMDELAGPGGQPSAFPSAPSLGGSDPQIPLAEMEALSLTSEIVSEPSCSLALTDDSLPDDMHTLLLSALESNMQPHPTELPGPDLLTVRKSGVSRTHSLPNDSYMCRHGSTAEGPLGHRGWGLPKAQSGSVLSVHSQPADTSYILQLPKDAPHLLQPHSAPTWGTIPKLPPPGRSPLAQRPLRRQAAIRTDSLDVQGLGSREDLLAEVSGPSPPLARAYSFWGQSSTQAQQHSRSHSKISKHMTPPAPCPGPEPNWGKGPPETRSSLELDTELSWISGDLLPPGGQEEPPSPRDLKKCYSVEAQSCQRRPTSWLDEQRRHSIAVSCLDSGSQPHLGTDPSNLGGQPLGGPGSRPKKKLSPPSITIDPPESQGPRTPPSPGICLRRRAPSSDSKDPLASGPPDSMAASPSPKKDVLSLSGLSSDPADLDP

As to `N.N.[Cl][Pt][Cl]` [Cisplatin], in the assay on lung cancer cells (A549) [1] (20 μM, Table 2), the G0/G1 was 9.0, the G2/M was 67.5, the S was found to be 13.1 and the SubG1 was 10.5. In the assay with lung cancer cells (A549) [1] (30 μM, Table 2), the G0/G1 was 14.0, the G2/M worked out at 52.9, the S turned out to be 15.8 and the SubG1 came to 17.0. Moreover, in assay [2] (30 μM), the G0/G1 came to 42, the G2/M came out at 29.4, the S is listed as 9.4 and the SubG1 is listed as 9.3.

As to `CN(C)C(=O)NCCCN(C)C1=Nc2ccccc2C(CC(=O)NCc2ccccc2)N1c1ccc(C2CCCCC2)cc1` (stereo not shown) [Compound I-1, 4-(N-benzylacetamido)-3-(4-cyclohexylphenyl)-2-[N—(N′,N′-dimethylureidopropyl)-N-methyl]amino-3,4-dihydroquinazoline], the IC50 (commonly the concentration that inhibits the measured activity by half) in assay [3] worked out at 0.39 ± 0.11 µM; in assay [4] it was 12.2 µM.

Turning to `CN(C)C(=O)NCCCN(C)C1=Nc2ccccc2C(CC(=O)NCc2ccc(F)cc2)N1c1ccc(C2CCCCC2)cc1` (stereo not shown) [Compound I-2, 4-[N-(4-fluorobenzyl)acetamido]-3-(4-cyclohexylphenyl)-2-[N—(N′,N′-dimethylureidopropyl)-N-methyl]amino-3,4-dihydroquinazoline], the figures for the IC50 in assay [3] and in assay [4] were 0.89 ± 0.06 µM and 7.3 µM, respectively. Moreover, the G0/G1 turned out to be 79.1 in the assay with lung cancer cells (A549) [1] (10 μM, Table 2); 77.4 with lung cancer cells (A549) [1] (10 μM, Table 4); 76.8 with lung cancer cells (A549) [1] (10 μM, Table 5); 44.7 in assay [2] (2.5 μM). Further, the G2/M with lung cancer cells (A549) [1] (10 μM, Table 2) was found to be 10.9; in the assay with lung cancer cells (A549) [1] (10 μM, Table 4), 13.3; with lung cancer cells (A549) [1] (10 μM, Table 5), 12.1; in assay [2] (2.5 μM), 35. For the same molecule, the S in the assay on lung cancer cells (A549) [1] (10 μM, Table 2) was 2.4; with lung cancer cells (A549) [1] (10 μM, Table 4), 5.4; in the assay with lung cancer cells (A549) [1] (10 μM, Table 5), 7.6; in assay [2] (2.5 μM), 7.2. Also, the SubG1 in the assay on lung cancer cells (A549) [1] (10 μM, Table 2) is 7.6; in the assay with lung cancer cells (A549) [1] (10 μM, Table 4), 4.0; in the assay with lung cancer cells (A549) [1] (10 μM, Table 5), 3.7; in assay [2] (2.5 μM) it was 2.5. Also, the “AV+/PI− (early apoptosis)” value in the assay on lung cancer cells (A549) [5] (A549, 2.5 μM) was determined as 2.4; in the assay with lung cancer cells (A549) [5] (A549, 5 μM), 1.88; in the assay with lung cancer cells (A549) [5] (A549, 10 μM), 8.8. Further, the “Total AV+ (sum of early and late apoptosis)” value in the assay on lung cancer cells (A549) [5] (A549, 2.5 μM) was found to be 6.08; with lung cancer cells (A549) [5] (A549, 5 μM) it was 4.78; with lung cancer cells (A549) [5] (A549, 10 μM), 13.14.

As to `COc1ccc(CN(C(C)=O)C2c3ccccc3N=C(N(C)CCCNC(=O)N(C)C)N2c2ccc(C3CCCCC3)cc2)cc1` (stereo not shown) [Compound I-3, 4-[N-(4-methoxybenzyl)acetamido)-3-(4-cyclohexylphenyl)-2-[N—(N′,N′-dimethylureidopropyl)-N-methyl]amino-3,4-dihydroquinazoline], in the assay on lung cancer cells (A549) [1] (10 μM, Table 6), the G0/G1 was 76.8, the G2/M is 12.1, the S was 7.6 and the SubG1 is recorded as 3.7.

Regarding `COc1cccc2c1C(=O)c1c(O)c3c(c(O)c1C2=O)C[C@@](O)(C(=O)CO)C[C@@H]3O[C@H]1C[C@H](N)[C@H](O)[C@H](C)O1` [Doxorubicin], in the assay with lung cancer cells (A549) [1] (10 μM, Table 5), the G0/G1 turned out to be 36.7, the G2/M is on record as 18.3, the S was 11.9 and the SubG1 turned out to be 33.5. Moreover, in the assay on lung cancer cells (A549) [1] (10 μM, Table 6), the G0/G1 came to 36.7, the G2/M was determined as 18.3, the S worked out at 11.9 and the SubG1 amounted to 33.5.

`COc1cc([C@@H]2c3cc4c(cc3[C@@H](O[C@@H]3O[C@@H]5CO[C@@H](C)O[C@H]5[C@H](O)[C@H]3O)[C@H]3COC(=O)[C@H]23)OCO4)cc(OC)c1O` [Etoposide]: in the assay with lung cancer cells (A549) [1] (50 μM, Table 4), the G0/G1 stood at 36.0, the G2/M amounted to 18.9, the S came out at 12.3 and the SubG1 was determined as 33.0. For the same molecule, in the assay on lung cancer cells (A549) [5] (A549, 50 μM), the “AV+/PI− (early apoptosis)” value was determined as 19.1; the “Total AV+ (sum of early and late apoptosis)” value came to 31.68.

As to `COc1cc2ncnc(Nc3ccc(F)c(Cl)c3)c2cc1OCCCN1CCOCC1` [Gefitinib], in the assay with lung cancer cells (A549) [1] (40 μM, Table 5), the G0/G1 was 72.7, the G2/M was determined as 11.8, the S came to 4 and the SubG1 is 11.6. Also, in the assay on lung cancer cells (A549) [1] (40 μM, Table 6), the G0/G1 is 72.7, the G2/M is given as 11.8, the S was determined as 4 and the SubG1 is listed as 11.6.

For `Cc1ccc(NC(=O)c2ccc(CN3CCN(C)CC3)cc2)cc1Nc1nccc(-c2cccnc2)n1` [Imatinib], in the assay on lung cancer cells (A549) [1] (100 μM, Table 5), the G0/G1 was 72.4, the G2/M was 14.4 and the SubG1 is reported as 2.9. Besides, in the assay on lung cancer cells (A549) [1] (100 μM, Table 6), the G0/G1 is 72.4, the G2/M is 14.4 and the SubG1 was 2.9.

Molecule `COCC(=O)O[C@]1(CCN(C)CCCc2nc3ccccc3[nH]2)CCc2cc(F)ccc2[C@@H]1C(C)C` [Mibefradil] returned an IC50 in assay [4] of 24.9 µM.

For `C#Cc1cccc(Nc2ncnc3cc(OCCOC)c(OCCOC)cc23)c1` [erlotinib, Erlotinib], in the assay with lung cancer cells (A549) [1] (150 μM, Table 5), the G0/G1 is given as 70.6, the G2/M worked out at 12.9, the S came out at 7.2 and the SubG1 worked out at 9.6. In the assay with lung cancer cells (A549) [1] (300 μM, Table 6), the G0/G1 amounted to 27.7, the G2/M came out at 1.2, the S is listed as 1 and the SubG1 was 70.3.
